In assay [1] the target is EZH2 (PRC2) (Homo sapiens, UniProt Q15910). Type of assay: biochemical.
Assay [2] concerns the target EZH2 Y646N (PRC2/EZH2^Y646N) (Homo sapiens, UniProt Q15910, Y641N). In kind it is biochemical.

Sequence of EZH2 Y646N (PRC2/EZH2^Y646N) (Q15910 whole entry Y641N): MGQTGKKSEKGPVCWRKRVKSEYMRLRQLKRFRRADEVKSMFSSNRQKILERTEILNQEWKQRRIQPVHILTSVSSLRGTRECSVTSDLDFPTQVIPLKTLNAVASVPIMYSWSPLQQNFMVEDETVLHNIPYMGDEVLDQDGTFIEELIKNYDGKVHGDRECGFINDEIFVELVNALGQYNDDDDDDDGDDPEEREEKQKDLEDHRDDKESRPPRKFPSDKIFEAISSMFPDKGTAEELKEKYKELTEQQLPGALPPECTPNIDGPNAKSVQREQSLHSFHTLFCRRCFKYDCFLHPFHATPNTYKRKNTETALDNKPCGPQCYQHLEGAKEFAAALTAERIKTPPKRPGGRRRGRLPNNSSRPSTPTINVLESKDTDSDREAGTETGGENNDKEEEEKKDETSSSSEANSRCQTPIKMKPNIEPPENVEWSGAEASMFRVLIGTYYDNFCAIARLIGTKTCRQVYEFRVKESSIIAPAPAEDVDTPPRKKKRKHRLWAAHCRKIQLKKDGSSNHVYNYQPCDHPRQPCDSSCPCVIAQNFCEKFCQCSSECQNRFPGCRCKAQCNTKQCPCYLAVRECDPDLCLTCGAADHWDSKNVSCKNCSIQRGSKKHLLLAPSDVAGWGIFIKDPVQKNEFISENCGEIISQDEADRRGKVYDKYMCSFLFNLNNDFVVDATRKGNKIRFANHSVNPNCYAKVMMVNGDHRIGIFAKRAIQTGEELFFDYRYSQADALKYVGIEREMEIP
Sequence of EZH2 Y646N (PRC2/EZH2^Y646N) (O75530 2-441 partner): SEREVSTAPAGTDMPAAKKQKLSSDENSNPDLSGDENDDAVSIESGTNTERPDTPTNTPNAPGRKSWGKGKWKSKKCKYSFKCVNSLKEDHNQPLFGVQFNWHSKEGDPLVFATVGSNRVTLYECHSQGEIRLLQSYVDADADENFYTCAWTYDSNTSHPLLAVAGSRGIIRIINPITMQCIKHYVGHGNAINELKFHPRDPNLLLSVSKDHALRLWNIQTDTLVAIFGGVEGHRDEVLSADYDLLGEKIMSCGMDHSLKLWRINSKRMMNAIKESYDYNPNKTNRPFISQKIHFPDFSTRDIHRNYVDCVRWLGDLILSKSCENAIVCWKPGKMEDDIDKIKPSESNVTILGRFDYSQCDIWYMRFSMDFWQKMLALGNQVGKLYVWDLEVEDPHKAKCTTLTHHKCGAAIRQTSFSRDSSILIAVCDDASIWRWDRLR
Sequence of EZH2 Y646N (PRC2/EZH2^Y646N) (Q15022 whole entry partner): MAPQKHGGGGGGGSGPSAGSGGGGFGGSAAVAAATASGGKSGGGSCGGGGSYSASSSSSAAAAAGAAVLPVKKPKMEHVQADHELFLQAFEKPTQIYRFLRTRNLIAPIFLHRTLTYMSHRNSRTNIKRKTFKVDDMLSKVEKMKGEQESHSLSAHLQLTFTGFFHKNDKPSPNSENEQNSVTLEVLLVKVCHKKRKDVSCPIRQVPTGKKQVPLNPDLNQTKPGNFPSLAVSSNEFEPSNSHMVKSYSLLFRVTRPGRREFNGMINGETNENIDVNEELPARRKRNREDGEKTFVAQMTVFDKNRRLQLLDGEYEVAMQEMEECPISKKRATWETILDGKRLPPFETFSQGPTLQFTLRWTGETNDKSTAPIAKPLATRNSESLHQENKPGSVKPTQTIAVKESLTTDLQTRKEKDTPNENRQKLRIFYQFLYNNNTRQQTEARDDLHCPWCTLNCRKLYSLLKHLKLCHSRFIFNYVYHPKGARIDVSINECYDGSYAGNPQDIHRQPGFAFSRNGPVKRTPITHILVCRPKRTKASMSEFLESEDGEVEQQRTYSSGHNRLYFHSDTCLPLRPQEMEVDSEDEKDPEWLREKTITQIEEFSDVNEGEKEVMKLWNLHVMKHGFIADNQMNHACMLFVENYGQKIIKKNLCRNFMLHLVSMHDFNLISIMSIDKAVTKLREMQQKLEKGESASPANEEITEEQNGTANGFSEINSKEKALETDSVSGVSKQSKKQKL
Sequence of EZH2 Y646N (PRC2/EZH2^Y646N) (Q09028 2-425 partner): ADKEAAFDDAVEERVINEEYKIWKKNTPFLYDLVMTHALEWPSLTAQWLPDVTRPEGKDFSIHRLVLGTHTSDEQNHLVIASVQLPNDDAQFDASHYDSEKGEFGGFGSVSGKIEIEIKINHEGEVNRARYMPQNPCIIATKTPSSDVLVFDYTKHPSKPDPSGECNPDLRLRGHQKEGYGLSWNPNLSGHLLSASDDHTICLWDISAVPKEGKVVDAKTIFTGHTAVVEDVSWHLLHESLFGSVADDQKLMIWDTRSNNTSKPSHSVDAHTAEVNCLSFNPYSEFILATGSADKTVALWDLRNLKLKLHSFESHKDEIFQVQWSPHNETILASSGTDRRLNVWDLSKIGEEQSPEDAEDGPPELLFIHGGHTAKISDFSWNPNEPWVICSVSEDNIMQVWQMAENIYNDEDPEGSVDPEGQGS
Sequence of EZH2 (PRC2) (Q15910 whole entry): as the sequence (Q15910 whole entry Y641N) above, with N641Y counted along it
Sequence of EZH2 (PRC2) (O75530 2-441 partner): as the sequence (O75530 2-441 partner) above
Sequence of EZH2 (PRC2) (Q15022 whole entry partner): as the sequence (Q15022 whole entry partner) above
Sequence of EZH2 (PRC2) (Q09028 2-425 partner): as the sequence (Q09028 2-425 partner) above

For orientation: IC50 means the point on the concentration scale where inhibition reaches its midpoint. Read a low IC50 as greater potency in that assay. On to `COC(=O)c1ccc(NC(=O)c2ccc(NC(=O)c3ccc([N+](=O)[O-])c(OCc4ccccc4)n3)c(OCc3ccccc3)n2)c(OCCCN)n1` [ADH-61], for which the half-inhibitory concentration (IC50) in assay [1] was found to be 0.766 ± 0.71 µM; in assay [2], 0.891 ± 0.096 µM.

The values are drawn from publication PMC5935545 (Molecular cell, 2018).
